“Also recorded” adds a separate entry of the source. Values belong to the molecule of their own block, whether it stands above or below them. Where a SMILES comes first, the peptide text is derived from it. Where no end group is shown, it is not given here. The star is where a group is joined. X1 = CC1(C)C(=CC=C2CCCC(C=CC3=[N+](CCCCS(=O)(=O)[O-])c4ccc(S(=O)(=O)O)cc4C3(C)C)=C2Oc2ccc(S(=O)(=O)O)cc2)N(CCCCCC(=O)NCCN2C(=O)CC(*)C2=O)c2ccc(S(=O)(=O)O)cc21
Key:
EpCAM [1] = molecular target: T1, EpCAM (Homo sapiens, UniProt P16422); experiment: siRNA knockdown validation of binding (confocal microscopy); format: cell-based; settings: for fluorescence intensity / cell surface staining, siEpCAM versus siCL: Hep3B (EpCAM+) cells, siRNA against EpCAM vs control siRNA
T1 construct: endogenous in cells; host or cells: Hep3B human HCC cells (A1 also names human SG231 ICC cells)
T1 sequence (P16422 24-314): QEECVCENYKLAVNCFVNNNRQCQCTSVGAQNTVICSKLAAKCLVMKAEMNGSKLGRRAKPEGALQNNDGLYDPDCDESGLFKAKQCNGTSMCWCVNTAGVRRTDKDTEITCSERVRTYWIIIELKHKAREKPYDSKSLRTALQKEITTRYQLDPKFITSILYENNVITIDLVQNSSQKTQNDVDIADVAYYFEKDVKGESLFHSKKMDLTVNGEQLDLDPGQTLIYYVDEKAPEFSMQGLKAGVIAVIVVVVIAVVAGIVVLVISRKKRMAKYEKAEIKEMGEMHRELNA
Description: (§1) An ANOVA was fit with terms for 3 treatments, 2 siRNA effects, and their interactions using slides in triplicate. […] Fluorescence intensities were measured from 10 cells chosen randomly from 3 slides. * P<0.01 by pairwise comparisons.
Specific binding of HPD*-IRDye800 to EpCAM was validated using siRNA knockdown in human SG231 (EpCAM+) ICC cells. Preliminary data were obtained using Hep3B (EpCAM+) human HCC cells. The cells were treated with siRNA against EpCAM (siEpCAM) and control siRNA (siCL).

[2] = system: patient-derived xenograft (PDX) tumor model of HCC; experiment: in vivo whole-body fluorescence imaging, PDX tumor model of HCC; parameters: species or system mouse; settings: over 24 hours
Description: (§2) A) Images were collected with excitation at λex=800 nm before (pre) and at 0, 0.5, 1.0, 1.25, 1.5, 2, 4 and 24 hours post-injection of HPD*-IRDye800. […] PFH*-IRDye800 was administered for use as control. […] B) The quantified T/B ratio confirms a peak uptake of HPD*-IRDye800 by tumor at 1.5 hours. The adjacent non-tumor tissue region with equal area to the tumor region was used for background.
(§3) Tumor-bearing mice [a patient-derived xenograft (PDX) tumor model of HCC] were injected intravenously with the HPD*-IRDye800 and control peptides (300 μM in 200 μl PBS). Unlabeled peptide and ICG were administrated as above. The spatial extent and margins of tumors were identified using a NIR whole-body fluorescence imaging system (Pearl®, LI-COR Biosciences) up to 24 h post injection. The images were acquired using λex=800 nm with 85 μm resolution and 16.8×12 cm^2 field of view (FOV). Image Studio software (Li-Cor Biosciences) was used for analysis. Regions of interest (ROI) with area equal to that of the tumor and adjacent in location was measured for background.

[3] = system: human HCC Hep3B xenograft tumors; experiment: in vivo NIR fluorescence imaging of orthotopic Hep3B xenograft tumors
Description: (§5) A total of n=8 animals were studied per group. […] P-values were calculated using a one-way ANOVA model. Background was defined as the adjacent non-tumor region with equal area of the tumor region.

EpCAM [4] = molecular target: T1, EpCAM; experiment: competition assay with unlabeled peptide; format: cell-based; settings: unlabeled competitor added at 0-120 mM
Description: as §1
Specific binding of HPD*-IRDye800 to EpCAM was also validated using a competition assay. Unlabeled HPD* was added to compete for binding with IRDye800-labeled HPD* with concentrations ranging from […].

EpCAM [5] = molecular target: T1, EpCAM; experiment: co-localization assay with anti-EpCAM-AF488 on Hep3B cells; format: cell-based
Description: (§4) A Pearson's correlation coefficient of p=0.81 was measured from the merged image. […] B) An apparent dissociation constant of kd=43 nM, R^2=0.99 was measured for HPD*-IRDye800 binding to Hep3B cells. The equilibrium dissociation constant kd=1/ka was calculated by performing using a least square fit of the data to the non-linear equation I=(I0+ImaxKa[X])/(I0+Ka[X]). I0 and Imax are the initial and maximum fluorescence intensities, corresponding to no peptide and at saturation, respectively, and [X] represents the concentration of the bound peptide. Results are the mean values from 3 independent experiments. C) Peptide stability in mouse serum was measured by intravenously injecting HPD*-IRDye800 (200 μM in 200 μL of PBS) in mice (n=5). Serum was collected at various time points from 0-24 hours post-injection. The fluorescence intensity I(t) was measured and fit to a first-order kinetics model I(t)=Io+A×exp(−Bt).
Finally, specific binding of HPD*-IRDye800 to EpCAM was validated using a co-localization assay. Binding by HPD*-IRDye800 and anti-EpCAM-AF488 to the surface (arrows) of Hep3B cells co-localized with a correlation of p=0.81 measured on the merged image, FIG. 3A.

[6] = serum stability (half-life) after intravenous injection in mice; format: in vivo; settings: 40 nmol, mouse serum, 0-24 hours, first-order kinetics fit, read-out: serum half-life T1/2 (converted)
Description: as §4
The serum half-life of HPD*-IRDye800 was measured to assess peptide stability. HPD*-IRDye800 was injected intravenously in live mice. Fluorescence intensities were measured time points ranging from 0-24 hours, and fit to a first order kinetic model.

human HCC tumor = experiment: ex vivo immunofluorescence of resected xenograft liver sections; parameters: species or system mouse; settings: immunofluorescence on resected liver sections
Source text: After imaging was completed as described in Example 6, the mice were euthanized, and the livers were resected, formalin-fixed, and sectioned to confirm EpCAM expression in human […] tumors. […] The merged image confirms co-localization of peptide and antibody binding to HCC tumor but not to normal mouse liver, FIG. 8D.

[7] = peptide toxicity, animal necropsy histology (H&E); format: in vivo, mouse; settings: brain, heart, liver, spleen, lung, kidney, stomach, colon
Description: Mice were sacrificed at […].
Tumor bearing mice were euthanized on day 0 and 15 post-injection of the HPD*-IRDye800 and control peptides. Whole blood (~600 μL) was collected by cardiac puncture and submitted for standard hematology and chemistry. Major organs, including liver, kidney, heart, lung, spleen, stomach, intestine, and brain were resected, processed, and evaluated as routine histology (H&E). A total of 8 mice in each cohort were evaluated.

human HCC specimens = experiment: immunofluorescence binding to human HCC specimens ex vivo
Description: Binding of HPD*-IRDye800 to human HCC specimens and metastatic lymph nodes ex vivo was examined using immunofluorescence.
The merged images show co-localization of peptide and antibody binding to HCC and normal liver, and a Pearson's correlation coefficient of p=0.68 and 0.66, respectively, were calculated. […] Results were compared with histology evaluated by an expert liver pathologist.

[8] = in vivo whole-body fluorescence imaging, PDX tumor model of HCC; parameters: species or system mouse; settings: mouse, in vivo, iv, 300 uM in 200 ul PBS, whole-body imaging up to 24 hours, read-out: time of peak T/B ratio post-injection
Description: as §2, §3

[9] = system: HCC micrometastases in lung; experiment: detection of lung micrometastases (immunofluorescence); parameters: species or system mouse; settings: lung tissue sections of PDX tumor model mice
Source text: D) Anti-cytokeratin stain confirms presence of human tumor (arrow). […] F) Corresponding histology (H&E) verifies HCC tumor in lung.
Immunofluorescence images were also collected from lung tissue sections of the PDX tumor model of HCC mice.

in vivo = settings: mouse, iv, 150 µM, 200 uL
Description: as §5

[10] = molecular target: T2, Epithelial cell adhesion molecule (EpCAM) (human, UniProt P16422 24-314); experiment: flow cytometry, HPD*-IRDye800 0-200 nM on Hep3B cells; apparent dissociation constant
T2 construct: whole, on cells; also called human EpCAM
T2 sequence (looked up): T1 sequence (P16422 24-314)

- fluorescence intensity / cell surface staining, siEpCAM versus siCL (EpCAM [1]): non-significant difference
Molecule: PFHDMHSNHTRT [PFH*, Unlabeled scrambled peptide (control), reference compound]

- time of peak uptake / peak T/B ratio post-injection ([3]; Hep3B xenograft tumors, imaged 0-48 hours): over 48 hours
Molecule: CC1(C)C(/C=C/C=C/C=C/C=C2\N(CCCCS(=O)(=O)[O-])c3ccc4ccccc4c3C2(C)C)=[N+](CCCCS(=O)(=O)[O-])c2ccc3ccccc3c21.[Na+] [ICG, reference compound]
- tumor uptake / T/B ratio in whole-body images [2]: non-specific uptake

Molecule: HPDMFTRTHSHN [HPD*, Optimized EpCAM-specific peptide, unlabeled]
- fluorescence intensity / cell surface staining, siEpCAM versus siCL (EpCAM [1]): significantly greater signal for siCL versus siEpCAM
- mean fluorescence intensity from HPD*-IRDye800 with competition from unlabeled peptide (EpCAM [4]): Decreased intensity; also recorded: decreased significantly
- tumor uptake / T/B ratio in whole-body images [2]: reduced values

Molecule: CSCC[C@H](NC(=O)[C@H](CC(=O)O)NC(=O)[C@@H]1CCCN1C(=O)[C@@H](N)Cc1c[nH]cn1)C(=O)N[C@@H](Cc1ccccc1)C(=O)N[C@H](C(=O)N[C@@H](CCCNC(=N)N)C(=O)N[C@H](C(=O)N[C@@H](Cc1c[nH]cn1)C(=O)N[C@@H](CO)C(=O)N[C@@H](Cc1c[nH]cn1)C(=O)N[C@@H](CC(N)=O)C(=O)NCC(=O)NCC(=O)NCC(=O)N[C@@H](CO)C(=O)N[C@@H](CSC1CC(=O)N(CCNC(=O)CCCCCN2C(=CC=C3CCCC(C=CC4=[N+](CCCCS(=O)(=O)[O-])c5ccc(S(=O)(=O)O)cc5C4(C)C)=C3Oc3ccc(S(=O)(=O)O)cc3)C(C)(C)c3cc(S(=O)(=O)O)ccc32)C1=O)C(N)=O)[C@@H](C)O)[C@@H](C)O (some centres unmarked) [HPD*-IRDye800] (H-HPDMFTRTHSHNGGGSC(X1)-NH2; N-terminus and C-terminus assumed)
- fluorescence intensity / cell surface staining, siEpCAM versus siCL (EpCAM [1]): Decreased cell surface staining; also recorded: reduced intensity
- binding to the surface of siCL (control) Hep3B cells (EpCAM [1]; confocal microscopy, control siRNA Hep3B cells): strong binding
- binding to the surface of Hep3B human HCC cells (EpCAM [5]; confocal microscopy): bind intensely
- Pearson's correlation coefficient, co-localization with anti-EpCAM-AF488 (EpCAM [5]; merged image, Hep3B cells): 0.81
- half-life [6]: 2.6 h
- staining of HCC tumor cell surface (but not normal mouse liver) (human HCC tumor): strong staining; also recorded: Bright fluorescence
- acute toxicity on histology (H&E) of vital organs [7]: No signs of acute toxicity
- fold increase in mean fluorescence intensity, HCC versus normal human liver (human HCC specimens; HCC n=36, normal n=12): 2.6 fold
- Pearson's correlation coefficient, co-localization with anti-EpCAM-AF488 (human HCC specimens; human HCC sections): 0.68
- AUC of ROC curve, HCC versus normal (human HCC specimens; human specimens ex vivo): 0.81
- sensitivity to distinguish HCC from normal (ROC) (human HCC specimens; human specimens ex vivo): 85%
- specificity to distinguish HCC from normal (ROC) (human HCC specimens; human specimens ex vivo): 66%
- mean fluorescence intensity, binding to HCC versus normal human liver (human HCC specimens; immunofluorescence): significantly greater
- staining of the surface of human HCC cells (human HCC specimens; immunofluorescence, human specimens): Intense staining; also recorded: strong staining
- Pearson's correlation coefficient, co-localization with anti-EpCAM-AF488 (human HCC specimens; normal human liver sections): 0.66
- tissue to tissue ratio [8]: 1.5
- tumor uptake / T/B ratio in whole-body images [2]: greater uptake
- detection of / binding to HCC micrometastases in lung [9]: detected very small tumor volumes in the form of micrometastases; also recorded: strong binding
- tissue to tissue ratio (in vivo): 1.5
- time to near complete clearance / signal back to baseline ([3]; Hep3B xenograft tumors, post-injection): ~ 48 hours
- NIR fluorescence intensity of tumor versus PFH*-IRDye800 ([3]; […] post-injection, Hep3B xenograft): significantly greater
- mean tumor intensity, fold greater than PFH*-IRDye800 ([3]; […] post-injection, tail vein, Hep3B xenograft): > 3.2 fold

- Kd [10]: 43 nM
B1: HPD*-IRDye800 (peptide)
peptide: HPDMFTRTHSHNGGGSC
modifications: also: IRDye800 attached via C-terminal GGGSC linker
notes: also called IRDye800-labeled HPD*; EpCAM-specific peptide conjugate
